# Measurements from PMC8515607 (ACS Omega, 2021).
# Where “and” joins values, the source holds several entries; their conditions need not be identical. Equal entries are not always repeated. Where two headings read alike, the source gives them in different places.
# Columns and labels:
# [1] = tested on: BALB/3T3; assay: In vitro antiproliferative activity, SRB assay, normal fibroblasts BALB/3T3; format: cell-based; conditions: 72 h, mean ± SD
# Excerpt: (§1) The A549 and MCF7 cell lines were purchased from the European Collection of Authenticated Cell Cultures (ECACC, Salisbury, U.K., 86012804 and 86012803). The LoVo cell line was purchased from the American Type Culture Collection (CCL-229, ATCC, Manassas, VA), and LoVo/DX by courtesy of Prof. E. Borowski (Technical University of Gdańsk, Gdańsk, Poland). The BALB/3T3 cell line was purchased from the American Type Culture Collection (CCL-163, ATCC, Manassas, VA). All of the cell lines are maintained in the Institute of Immunology and Experimental Therapy (IIET), Wroclaw, Poland.
# (§2) A549 cells were cultured in a mixture of OptiMEM and Roswell Park Memorial Institute (RPMI) 1640 (1:1) medium (IIET, Wroclaw, Poland), supplemented with 10% fetal bovine serum HyClone (GE Healthcare) and 2 mM L-glutamine (Sigma-Aldrich, Germany). MCF7 cells were cultured in a mixture of Eagle’s medium (IIET, Wroclaw, Poland), supplemented with 10% fetal bovine serum, 2 mM L-glutamine, and insulin (Sigma-Aldrich, Germany). LoVo and LoVo/DX cells were cultured in F12K medium (Corning), supplemented with 10% fetal bovine serum HyClone (GE Healthcare) and 0.1 μg/mL doxorubicin (Accord) for LoVo/DX. BALB/3T3 fibroblasts were cultured in Dulbecco’s medium (Gibco), supplemented with 10% fetal bovine serum (GE Healthcare) and 2 mM L-glutamine (Sigma-Aldrich, Germany). All culture media contained antibiotics: 100 U/mL penicillin (Polfa-Tarchomin, Poland) and 0.1 mg/mL streptomycin (Sigma-Aldrich, Germany). All cell lines were cultured during entire experiment in humid atmosphere at 37 °C and 5% CO2.
# (§3) All cell lines were exposed to each tested agent at different concentrations in the range 100–0.00001 μg/mL for 72 h. The cells were also exposed to the reference drug cisplatin (Teva Pharmaceuticals, Poland) and doxorubicin (Accord Healthcare Limited, U.K.). Additionally, all cell lines were exposed to dimethyl sulfoxide (DMSO) (solvent used for tested compounds) (POCh, Poland) at concentrations corresponding to those present in tested agents dilutions. After 72 h, sulforhodamine B (SRB) assay was performed.[57]
# (§4) After 72 h of incubation with the tested compounds, the cells were fixed in situ by gently adding cold 50% trichloroacetic acid (TCA) (POCh, Poland) and were incubated at room temperature for 1 h. Then, the wells were washed four times with water and air-dried. Next, 0.1% solution of sulforhodamine B (Sigma-Aldrich, Germany) in 1% acetic acid (POCh, Poland) was added to each well and the plates were incubated at room temperature for 0.5 h. After incubation time, unbound dye was removed by washing plates four times with 1% acetic acid, whereas stain bound to cells was solubilized with 10 mM Tris base (Sigma-Aldrich, Germany). Absorbance of each solution was read at Synergy H4 Hybrid Multi-Mode Microplate Reader (BioTek Instruments) at the 540 nm wavelength.
# (§5) IC50 values were calculated in Excel sheet using formulas adapted by Mateusz Psurski fromCheburator 0.4, Dmitry Nevozhay software (version 1.2.0 software by Dmitry Nevozhay, 2004–2014, http://www.cheburator.nevozhay.com, freely available) for each experiment.[58] Compounds at each concentration were tested in triplicate in a single experiment, and each experiment was repeated at least three times independently.
# [2] = tested on: LoVo/DX; assay: cells; format: cell-based, human; conditions: for LoVo/DX RI: resistance index = IC50 LoVo/DX / IC50 LoVo; for LoVo/DX SI: selectivity index = IC50 BALB/3T3 / IC50 LoVo/DX
# Excerpt: as §1, §2, §3, §4, §5
# [3] = tested on: MCF-7; assay: cells; format: cell-based, human; conditions: for MCF-7 SI: selectivity index = IC50 BALB/3T3 / IC50 MCF-7
# Excerpt: as §1, §2, §3, §4, §5
# [4] = tested on: A549; assay: cells; format: cell-based, human; conditions: for A549 SI: selectivity index = IC50 BALB/3T3 / IC50 A549
# Excerpt: as §1, §2, §3, §4, §5
# [5] = tested on: LoVo; assay: cells; format: cell-based, human; conditions: for LoVo SI: selectivity index = IC50 BALB/3T3 / IC50 LoVo
# Excerpt: as §1, §2, §3, §4, §5
# [6] = Mus musculus, BALB/3T3, normal murine embryonic fibroblasts
# [7] = Homo sapiens, LoVo/DX, 72 h, read-out: LoVo/DX IC50 (nM), 72 h exposure, SRB, mean ± SD
# [8] = Homo sapiens, MCF7, 72 h, read-out: MCF-7 IC50 (nM)
# [9] = Homo sapiens, A549, 72 h, read-out: A549 IC50 (nM), 72 h exposure, SRB, mean ± SD
# [10] = Homo sapiens, LoVo, 72 h, read-out: LoVo IC50 (nM)
SMILES,"IC50 [1, 6] [nM]","IC50 [2, 7] [nM]",LoVo/DX RI [2],LoVo/DX SI [2],"IC50 [3, 8] [nM]",MCF-7 SI [3],"IC50 [4, 9] [nM]",A549 SI [4],"IC50 [5, 10] [nM]",LoVo SI [5],IC50 ([1]; normal murine embryonic fibroblasts) [nM],"IC50 ([2]; 72 h exposure, SRB, mean ± SD, read-out: LoVo/DX IC50) [nM]","IC50 ([3]; 72 h exposure, SRB, mean ± SD, read-out: MCF-7 IC50) [nM]","IC50 ([4]; 72 h exposure, SRB, mean ± SD, read-out: A549 IC50) [nM]","IC50 ([5]; 72 h exposure, SRB, mean ± SD, read-out: LoVo IC50) [nM]","IC50 ([2]; Homo sapiens, LoVo/DX, 72 h exposure, SRB, mean ± SD, read-out: LoVo/DX IC50) [nM]","IC50 ([3]; Homo sapiens, MCF7, 72 h exposure, SRB, mean ± SD, read-out: MCF-7 IC50) [nM]","IC50 ([4]; Homo sapiens, A549, 72 h exposure, SRB, mean ± SD, read-out: A549 IC50) [nM]","IC50 ([5]; Homo sapiens, LoVo, 72 h exposure, SRB, mean ± SD, read-out: LoVo IC50) [nM]"
CNc1ccc2c(cc1=O)[C@@H](n1cc(CNC(=O)c3ccncc3)nn1)CCc1cc(OC)c(OC)c(OC)c1-2 [Compound 36],74 ± 22,9100 ± 790,700,<0.1,12 ± 1.4,6.3 and 6.2,22 ± 7.4,3.4,13 ± 3.4,5.7,,,,,,,,,
CNc1ccc2c(cc1=O)[C@@H](n1cc(C(C)(C)O)nn1)CCc1cc(OC)c(OC)c(OC)c1-2 [Compound 12],50 ± 4.5,2400 ± 550,130,<0.1,13 ± 3.4,3.8,37 ± 4.2,1.4,19 ± 3.9,2.6,,,,,,,,,
"N.N.[Cl][Pt][Cl] [cisplatin, reference compound]",,,0.7,1.1,,0.8,,0.9,,0.8,3300 ± 970,3000 ± 800,4400 ± 1200,3500 ± 630,4100 ± 860,,,,
CNc1ccc2c(cc1=O)[C@@H](n1cc(C3(O)CCCCC3)nn1)CCc1cc(OC)c(OC)c(OC)c1-2 [Compound 13],100 ± 33,1700 ± 160,26,0.1,88 ± 50,1.1,94 ± 30,1.1,65 ± 33,1.5,,,,,,,,,
CNc1ccc2c(cc1=O)[C@@H](n1cc(C(=O)O)nn1)CCc1cc(OC)c(OC)c(OC)c1-2 [Compound 20],2100 ± 750,3400 ± 890,2.8,0.6,1200 ± 390,1.8,1300 ± 330,1.6,1200 ± 350,1.8,,,,,,,,,
CNc1ccc2c(cc1=O)[C@@H](n1cc(CNC(=O)CCC(F)(F)F)nn1)CCc1cc(OC)c(OC)c(OC)c1-2 [Compound 33],27 ± 8.7,3000 ± 800,270,<0.1,9.7 ± 3.4,2.8,11 ± 0.1,2.5,11 ± 5.5,2.5,,,,,,,,,
CNc1ccc2c(cc1=O)[C@@H](n1nnc(C(=O)O)c1C(=O)O)CCc1cc(OC)c(OC)c(OC)c1-2 [Compound 23],1200 ± 14,2900 ± 390,3.4,0.4,990 ± 82,1.2,1000 ± 240,1.2,860 ± 190,1.4,,,,,,,,,
"COc1cccc2c1C(=O)c1c(O)c3c(c(O)c1C2=O)C[C@@](O)(C(=O)CO)C[C@@H]3O[C@H]1C[C@H](N)[C@H](O)[C@H](C)O1 [doxorubicin, reference compound]",12 ± 2.3,,110,<0.1,,0.1,,0.1,,0.2,,,,,,5800 ± 2200,82 ± 31,120 ± 100,52 ± 13
